Experimental data taken from ChEMBL document CHEMBL1125487, “Acetazolamide-like carbonic anhydrase inhibitors with topical ocular hypotensive activity” (J Med Chem, 1992).
Values after ≈ are worked out from the molar mass of the structure shown. Values joined by “and” are separate entries in the source; they are usually repeats but may differ in a detail not shown here. Identical values can stand only once.

How the values were obtained:
[1] = physchem; conditions: phosphate buffer
Description: Solubility (in phosphate buffer)

[2] = molecular target: Carbonic anhydrase; assay type: protein assay
Description: Inhibition of Carbonic anhydrase enzyme in rabbits

[3] = species on record: Oryctolagus cuniculus; test: Effect on intraocular pressure in right eye was tested by using transition ocular hypertension model at 40 min.; also: test concentration or dose not given here; assay type: functional
[4] = species on record: Oryctolagus cuniculus; test: Effect on intraocular pressure in left eye was tested by using transition ocular hypertension model at 0 min.; also: test concentration or dose not given here; assay type: functional
[5] = species on record: Oryctolagus cuniculus; test: Effect on intraocular pressure in right eye was tested by using transition ocular hypertension model at basal condition; assay type: functional; also: test concentration or dose not given here
[6] = species on record: Oryctolagus cuniculus; test: Effect on intraocular pressure in right eye was tested by using transition ocular hypertension model at 10 min.; assay type: functional
[7] = species on record: Oryctolagus cuniculus; test: Effect on intraocular pressure in right eye was tested by using transition ocular hypertension model at 0 min.; also: test concentration or dose not given here; assay type: functional
[8] = species on record: Oryctolagus cuniculus; test: Effect on intraocular pressure in left eye was tested by using transition ocular hypertension model at basal condition; assay type: functional
[9] = species on record: Oryctolagus cuniculus; test: Effect on intraocular pressure in left eye was tested by using transition ocular hypertension model at 20 min.; also: test concentration or dose not given here; assay type: functional
[10] = species on record: Oryctolagus cuniculus; test: Effect on intraocular pressure in right eye was tested by using transition ocular hypertension model at 20 min.; also: test concentration or dose not given here; assay type: functional
[11] = species on record: Oryctolagus cuniculus; test: Effect on intraocular pressure in left eye was tested by using transition ocular hypertension model at 10 min.; also: test concentration or dose not given here; assay type: functional
[12] = species on record: Oryctolagus cuniculus; test: Effect on intraocular pressure in left eye was tested by using transition ocular hypertension model at 40 min.; also: test concentration or dose not given here; assay type: functional
[13] = test system: Oryctolagus cuniculus; test: Effect on intraocular pressure in right eye was tested by using transition ocular hypertension model at 10 min. (after 8 hr administration); assay type: functional
[14] = test system: Oryctolagus cuniculus; test: Effect on intraocular pressure in right eye was tested by using transition ocular hypertension model at 10 min. (after 4 hr administration); assay type: functional
[15] = test system: Oryctolagus cuniculus; test: Effect on intraocular pressure in left eye was tested by using transition ocular hypertension model at basal condition (after 4 hr administration); assay type: functional
[16] = test system: Oryctolagus cuniculus; test: Effect on intraocular pressure in right eye was tested by using transition ocular hypertension model at basal condition (after 4 hr administration); assay type: functional
[17] = test system: Oryctolagus cuniculus; test: Effect on intraocular pressure in left eye was tested by using transition ocular hypertension model at 0 min. (after 8 hr administration); assay type: functional
[18] = test system: Oryctolagus cuniculus; test: Effect on intraocular pressure in left eye was tested by using transition ocular hypertension model at 20 min. (after 8 hr administration); assay type: functional
[19] = test system: Oryctolagus cuniculus; test: Effect on intraocular pressure in left eye was tested by using transition ocular hypertension model at 40 min. (after 8 hr administration); assay type: functional
[20] = test system: Oryctolagus cuniculus; test: Effect on intraocular pressure in left eye was tested by using transition ocular hypertension model at 40 min. (after 4 hr administration); assay type: functional
[21] = test system: Oryctolagus cuniculus; test: Effect on intraocular pressure in right eye was tested by using transition ocular hypertension model at 0 min (after 4 hr administration); assay type: functional
[22] = test system: Oryctolagus cuniculus; test: Effect on intraocular pressure in right eye was tested by using transition ocular hypertension model at 20 min. (after 4 hr administration); assay type: functional
[23] = test system: Oryctolagus cuniculus; test: Effect on intraocular pressure in left eye was tested by using transition ocular hypertension model at basal condition (after 8 hr administration); assay type: functional
[24] = test system: Oryctolagus cuniculus; test: Effect on intraocular pressure in left eye was tested by using transition ocular hypertension model at 10 min. (after 4 hr administration); assay type: functional
[25] = test system: Oryctolagus cuniculus; test: Effect on intraocular pressure in right eye was tested by using transition ocular hypertension model at 0 min (after 8 hr administration); assay type: functional
[26] = test system: Oryctolagus cuniculus; test: Effect on intraocular pressure in right eye was tested by using transition ocular hypertension model at basal condition (after 8 hr administration); assay type: functional
[27] = test system: Oryctolagus cuniculus; test: Effect on intraocular pressure in right eye was tested by using transition ocular hypertension model at 40 min. (after 8 hr administration); assay type: functional
[28] = test system: Oryctolagus cuniculus; test: Effect on intraocular pressure in right eye was tested by using transition ocular hypertension model at 40 min. (after 4 hr administration); assay type: functional
[29] = test system: Oryctolagus cuniculus; test: Effect on intraocular pressure in right eye was tested by using transition ocular hypertension model at 20 min. (after 8 hr administration); assay type: functional
[30] = test system: Oryctolagus cuniculus; test: Effect on intraocular pressure in left eye was tested by using transition ocular hypertension model at 0 min. (after 4 hr administration); assay type: functional
[31] = test system: Oryctolagus cuniculus; test: Effect on intraocular pressure in left eye was tested by using transition ocular hypertension model at 20 min. (after 4 hr administration); assay type: functional
[32] = test system: Oryctolagus cuniculus; test: Effect on intraocular pressure in left eye was tested by using transition ocular hypertension model at 10 min. (after 8 hr administration); assay type: functional
[33] = buffer
Description: Solubility (in phosphate buffer)

Structure (SMILES) | solubility [1] [mM] | IC50 [2] [nM] | IOP [3] [mmHg] | IOP [4] | IOP [5] [mmHg] | IOP [6] [mmHg] | IOP [7] [mmHg] | IOP [8] [mmHg] | IOP [9] [mmHg] | IOP [10] [mmHg] | IOP [11] [mmHg] | IOP [12] [mmHg] | also measured
COC(=O)CCCC(=O)Nc1nnc(S(N)(=O)=O)s1 | 11.5 (≈ 3550 µg/mL) | 910 | – | – | – | – | – | – | – | – | – | – | –
CCC(C)OC(=O)CCC(=O)Nc1nnc(S(N)(=O)=O)s1 (configuration not stated) | 3.7 (≈ 1240 µg/mL) | 370 | 16.67 | 15.5 mmHg | 15.67 | 21.5 | 14.67 | 15.33 | 21.17 | 19 | 25.67 | 17.17 | –
COC(=O)CCC(=O)/N=c1/sc(S(N)(=O)=O)nn1C | 7.3 (≈ 2250 µg/mL) | 450 | 17.33 | 16 mmHg | 15.5 | 24.67 | 14.83 | 15.33 | 21.5 | 20.83 | 25.83 | 17.83 | –
COC(=O)CCCCC(=O)Nc1nnc(S(N)(=O)=O)s1 | < 1 | 230 | – | – | – | – | – | – | – | – | – | – | –
COC(=O)CCC(=O)Nc1nnc(S(N)(=O)=O)s1 | 3.2 (≈ 942 µg/mL) | 550 | 16.5 | 16.17 mmHg | 15.67 | 25.33 | 15.17 | 15.83 | 20.17 | 19.5 | 25.5 | 16.67 | –
NS(=O)(=O)c1nnc(NC(=O)CCC(=O)O)s1 | 60.7 (≈ 17000 µg/mL) | – | 15.67 | 15.5 mmHg | 15.67 | 19.33 | 14.33 | 15.5 | 21.67 | 17.17 | 26 | 19 | IOP [13]: 22.23 mmHg; IOP [14]: 18.5 mmHg; IOP [15]: 15.5 mmHg; IOP [16]: 15.5 mmHg; IOP [17]: 15.67 mmHg; IOP [18]: 21.5 mmHg; IOP [19]: 18.67 mmHg; IOP [20]: 18.83 mmHg; IOP [21]: 13.33 mmHg; IOP [22]: 18.33 mmHg; IOP [23]: 15.67 mmHg; IOP [24]: 25.83 mmHg; IOP [25]: 14.83 mmHg; IOP [26]: 15.67 mmHg; IOP [27]: 16.5 mmHg; IOP [28]: 16.33 mmHg; IOP [29]: 18.67 mmHg; IOP [30]: 15.33 mmHg; IOP [31]: 22 mmHg; IOP [32]: 26.17 mmHg
CCCCCOC(=O)CCC(=O)Nc1nnc(S(N)(=O)=O)s1 | 1.3 (≈ 456 µg/mL) | 390 | 17.83 | 15.67 mmHg | 15.83 | 22.67 | 15 | 15.67 | 21.33 | 20 | 24.5 | 18.83 | –
CCCCCOC(=O)CCC(=O)/N=c1/sc(S(N)(=O)=O)nn1C | 1.4 (≈ 510 µg/mL) | 310 | 22 | 15.33 mmHg | 15.67 | 20.67 | 15.5 | 15.83 | 20.67 | 25.17 | 24 | 17.83 | –
COC(=O)CCCCCCCC(=O)Nc1nnc(S(N)(=O)=O)s1 | < 1 | 910 | – | – | – | – | – | – | – | – | – | – | –
NS(=O)(=O)c1nnc(NC(=O)CCCCC(=O)O)s1 | 25 (≈ 7710 µg/mL) | – | 17.17 | 16.17 mmHg and 22 mmHg | 16.83 | – | 16.33 | 16.33 | 21.67 | 20 | 25.17 | 18 | –
CCCCCCCCCCCCOC(=O)CCC(=O)Nc1nnc(S(N)(=O)=O)s1 | – | 520 | – | – | – | – | – | – | – | – | – | – | –
NCCCCC(=O)Nc1nnc(S(N)(=O)=O)s1 | – | 440 | 16.83 | 15.83 mmHg | 15.83 | 24 | 15 | 15.5 | 21.5 | 20.83 | 26.17 | 17.33 | S [33]: 8.8 mM
NS(=O)(=O)c1nnc(NC(=O)CCCC(=O)O)s1 | 31 (≈ 9120 µg/mL) | 520 | 16.5 | 15.33 mmHg | 15.5 | 21.17 | 14.67 | 15.5 | 22 | 19 | 25.5 | 17.83 | –
NS(=O)(=O)c1nnc(NC(=O)CCCCCCCC(=O)O)s1 | 21.6 (≈ 7570 µg/mL) | 480 | 17 | 16 mmHg | 15.83 | 25.17 | 16.17 | 16 | 20.67 | 19.5 | 26.5 | 17.5 | –
COC(=O)CC(=O)Nc1nnc(S(N)(=O)=O)s1 | 16 (≈ 4480 µg/mL) | 940 | 17 | 16.17 mmHg | 16.17 | 23.17 | 15.87 | 16.33 | 22.5 | 19.67 | 27.17 | 19.17 | –
CC(C)(C)NC[C@H](O)COc1nsnc1N1CCOCC1 [TIMOLOL] | – | – | 18.77 | 16.84 mmHg | 18.53 | 18.57 | 15.77 | 18.53 | 21.97 | 19.38 | 25.84 | 18.77 | –
CCOC(=O)CCC(=O)Nc1nnc(S(N)(=O)=O)s1 | 8.9 (≈ 2740 µg/mL) | – | 15.67 | 15.5 mmHg | 15.33 | 20.33 | 13.33 | 15.33 | 20.67 | 17.33 | 25.67 | 17.67 | –
